US9095138B2, “Isoxazoline insecticides” (E.I. du Pont de Nemours and Company, priority 2007, dated 2015)

Legend:
[1] = test system: diamondback moth (Plutella xylostella); experiment: Test A: control of diamondback moth on radish plant, foliar spray; format: in vivo; details: sprayed at 50 ppm; neonate larvae on radish; assessed after 6 days; replicated three times
From the text: For evaluating control of diamondback moth (Plutella xylostella) the test unit consisted of a small open container with a 12-14-day-old radish plant inside. This was pre-infested with about 50 neonate larvae that were dispensed into the test unit via corn-cob grits using a bazooka inoculator. The larvae moved onto the test plant after being dispensed into the test unit.
(§1) Test compounds were formulated using a solution containing 10% acetone, 90% water and 300 ppm X-77™ Spreader Lo-Foam Formula non-ionic surfactant containing alkylarylpolyoxyethylene, free fatty acids, glycols and isopropanol (Loveland Industries, Inc. Greeley, Colo., USA). The formulated compounds were applied in 1 mL of liquid through a SUJ2 atomizer nozzle with ⅛ JJ custom body (Spraying Systems Co. Wheaton, Ill., USA) positioned 1.27 cm (0.5 inches) above the top of each test unit. All experimental compounds in these tests were sprayed at 50 ppm, and the test was replicated three times. After spraying of the formulated test compound, each test unit was allowed to dry for 1 h and then a black, screened cap was placed on top. The test units were held for 6 days in a growth chamber at 25° C. and 70% relative humidity. Plant feeding damage was then visually assessed based on foliage consumed and a pest mortality rating was also counted and calculated for each test unit.

[2] = test system: western flower thrips (Frankliniella occidentalis); experiment: Test E: control of western flower thrips on Soleil bean plant, contact and/or systemic; format: in vivo; details: adult thrips, assessed after 6 days, replicated three times
Procedure: as §1
For evaluating control of the western flower thrips (Frankliniella occidentalis) through contact and/or systemic means, the test unit consisted of a small open container with a 5-7 day old Soleil Bean plant inside. Test compounds were formulated and sprayed as described for Test A. All experimental compounds in these tests were sprayed at 250 or 50 ppm as noted, and the test was replicated three times. After spraying, the test units were allowed to dry for 1 hour and then 22-27 adult thrips were added to each unit and then a black, screened cap was placed on top. The test units were held for 6 days at 25° C. and 45-55% relative humidity. A mortality rating was assessed along with a plant damage rating for each test unit.

Structure (SMILES)	control efficacy (feeding damage or mortality): very good to excellent levels [1]	control efficacy (feeding damage or mortality): very good to excellent levels ([2]; sprayed at 250 ppm)	control efficacy (feeding damage or mortality): very good to excellent levels ([2]; sprayed at 50 ppm)
O=C(NCC(=O)N1CCCCC1)c1ccc(C2=NOC(c3cc(Cl)cc(Cl)c3)(C(F)(F)F)C2)c2ccccc12 (centres unmarked) [Compound 89]	20% or less feeding damage or 80% or more mortality	20% or less feeding damage or 80% or more mortality	
CCS(=O)(=O)N1CCN(C(=O)CNC(=O)c2ccc(C3=NOC(c4cccc(C(F)(F)F)c4)(C(F)(F)F)C3)c3ccccc23)CC1 (centres unmarked) [Compound 92]	20% or less feeding damage or 80% or more mortality		
O=C(O)CNC(=O)c1ccc(C2=NOC(c3cc(Br)cc(C(F)(F)F)c3)(C(F)(F)F)C2)c2ccccc12 (racemic) [Compound 23]	20% or less feeding damage or 80% or more mortality		
CCNC(=O)[C@H]1CCCN1C(=O)c1ccc(C2=NOC(c3cc(Cl)cc(Cl)c3)(C(F)(F)F)C2)c2ccccc12 (some centres unmarked) [Compound 106]	20% or less feeding damage or 80% or more mortality	20% or less feeding damage or 80% or more mortality	20% or less feeding damage or 80% or more mortality
CC(C)(NC(=O)c1ccc(C2=NOC(c3cc(Cl)cc(Cl)c3)(C(F)(F)F)C2)c2ccccc12)C(=O)O (racemic) [Compound 6]	20% or less feeding damage or 80% or more mortality	20% or less feeding damage or 80% or more mortality	20% or less feeding damage or 80% or more mortality
O=C(CNC(=O)c1ccc(C2=NOC(c3cc(F)cc(F)c3)(C(F)(F)F)C2)c2ccccc12)NC1CC1 (centres unmarked) [Compound 62]	20% or less feeding damage or 80% or more mortality		
CSCCNC(=O)CNC(=O)c1ccc(C2=NOC(c3cc(Cl)cc(Cl)c3)(C(F)(F)F)C2)c2ccccc12 (centres unmarked) [Compound 48]	20% or less feeding damage or 80% or more mortality	20% or less feeding damage or 80% or more mortality	
CN(CCCNC(=O)c1ccc(C2=NOC(c3cc(Cl)cc(Cl)c3)(C(F)(F)F)C2)c2ccccc12)C(=O)OC(C)(C)C (racemic) [Compound 3]	20% or less feeding damage or 80% or more mortality	20% or less feeding damage or 80% or more mortality	20% or less feeding damage or 80% or more mortality
O=C([O-])CNC(=O)c1ccc(C2=NOC(c3cc(Cl)cc(Cl)c3)(C(F)(F)F)C2)c2ccccc12.[Na+] (racemic) [Compound 13]	20% or less feeding damage or 80% or more mortality		
CC(NC(=O)c1ccc(C2=NOC(c3cc(Cl)cc(OC(F)(F)F)c3)(C(F)(F)F)C2)c2ccccc12)C(=O)O (mixture of isomers) [Compound 35]	20% or less feeding damage or 80% or more mortality		
CSCCNC(=O)CNC(=O)c1ccc(C2=NOC(c3cccc(Br)c3)(C(F)(F)F)C2)c2ccccc12 (centres unmarked) [Compound 57]	20% or less feeding damage or 80% or more mortality		
CNC(=O)[C@@H]1CCCN1C(=O)c1ccc(C2=NOC(c3cc(Cl)cc(Cl)c3)(C(F)(F)F)C2)c2ccccc12 (some centres unmarked) [Compound 103]	20% or less feeding damage or 80% or more mortality		
CS(=O)(=O)NC(=O)c1ccc(C2=NOC(c3cc(Cl)cc(Cl)c3)(C(F)(F)F)C2)c2ccccc12 (racemic) [Compound 10]	20% or less feeding damage or 80% or more mortality		
CC(NC(=O)c1ccc(C2=NOC(c3cc(Cl)cc(OCC(F)(F)F)c3)(C(F)(F)F)C2)c2ccccc12)C(=O)O (mixture of isomers) [Compound 37]	20% or less feeding damage or 80% or more mortality		
O=C(O)CNC(=O)c1ccc(C2=NOC(c3cc(Cl)cc(C(F)(F)F)c3)(C(F)(F)F)C2)c2ccccc12 (racemic) [Compound 26]	20% or less feeding damage or 80% or more mortality	20% or less feeding damage or 80% or more mortality	
O=C(O)CCNC(=O)c1ccc(C2=NOC(c3cc(Cl)cc(Cl)c3)(C(F)(F)F)C2)c2ccccc12 (racemic) [Compound 7]	20% or less feeding damage or 80% or more mortality		
CC(C)(NC(=O)c1ccc(C2=NOC(c3cc(Cl)cc(Cl)c3)(C(F)(F)F)C2)c2ccccc12)C(=O)NCC1CC1 (centres unmarked) [Compound 43]	20% or less feeding damage or 80% or more mortality	20% or less feeding damage or 80% or more mortality	20% or less feeding damage or 80% or more mortality
O=C(O)CNC(=O)c1ccc(C2=NOC(c3cc(Cl)cc(Cl)c3)(C(F)(F)F)C2)c2ccccc12 (racemic) [Compound 12]	20% or less feeding damage or 80% or more mortality		
O=C(NC(C(=O)O)c1ccccc1)c1ccc(C2=NOC(c3cc(Cl)cc(Cl)c3)(C(F)(F)F)C2)c2ccccc12 (mixture of isomers) [Compound 5]	20% or less feeding damage or 80% or more mortality		
CC(C)[C@@H](NC(=O)c1ccc(C2=NOC(c3cc(C(F)(F)F)cc(C(F)(F)F)c3)(C(F)(F)F)C2)c2ccccc12)C(=O)O (some centres unmarked) [Compound 39]	20% or less feeding damage or 80% or more mortality		
O=C(CNC(=O)c1ccc(C2=NOC(c3cc(Cl)cc(Cl)c3)(C(F)(F)F)C2)c2ccccc12)Nc1ccc(C(F)(F)F)cc1 (centres unmarked) [Compound 46]	20% or less feeding damage or 80% or more mortality		
O=C(O)[C@@H]1CCCN1C(=O)c1ccc(C2=NOC(c3cc(Cl)cc(Cl)c3)(C(F)(F)F)C2)c2ccccc12 (some centres unmarked) [Compound 99]	20% or less feeding damage or 80% or more mortality		
O=C(CNC(=O)c1ccc(C2=NOC(c3cccc(F)c3)(C(F)(F)F)C2)c2ccccc12)NC1CC1 (centres unmarked) [Compound 63]	20% or less feeding damage or 80% or more mortality		
CCNC(=O)[C@@H]1CCCN1C(=O)c1ccc(C2=NOC(c3cc(Cl)cc(Cl)c3)(C(F)(F)F)C2)c2ccccc12 (some centres unmarked) [Compound 105]	20% or less feeding damage or 80% or more mortality		
O=C(O)CNC(=O)c1ccc(C2=NOC(c3cc(Cl)cc(OC(F)(F)F)c3)(C(F)(F)F)C2)c2ccccc12 (racemic) [Compound 34]	20% or less feeding damage or 80% or more mortality		
O=C(CNC(=O)c1ccc(C2=NOC(c3cccc(OC(F)(F)F)c3)(C(F)(F)F)C2)c2ccccc12)NCc1ccccn1 (centres unmarked) [Compound 59]	20% or less feeding damage or 80% or more mortality		
O=C(O)CNC(=O)c1ccc(C2=NOC(c3cc(Cl)c(Cl)c(Cl)c3)(C(F)(F)F)C2)c2ccccc12 (racemic) [Compound 8]	20% or less feeding damage or 80% or more mortality	20% or less feeding damage or 80% or more mortality	
COC(=O)[C@@H]1CCCN1C(=O)c1ccc(C2=NOC(c3cc(Cl)cc(Cl)c3)(C(F)(F)F)C2)c2ccccc12 (some centres unmarked) [Compound 97]	20% or less feeding damage or 80% or more mortality		
CC(C)=NOC(=O)CNC(=O)c1ccc(C2=NOC(c3cc(C(F)(F)F)cc(C(F)(F)F)c3)(C(F)(F)F)C2)c2ccccc12 (racemic) [Compound 25]	20% or less feeding damage or 80% or more mortality		
